The values below come from the SangsterLogP compilation.

Data set [1] is described as follows: method code SF-AS, from DOI: 10.1021/jm9807104, PMID: 10514282. The following applies: pH 7.0.
The nature of data set [2]: method code SF-AS, from DOI: 10.1080/1071576031000148736, PMID: 14567446.
The nature of data set [3]: method code SF-RC, from DOI: 10.1021/jm070025+, PMID: 17411026. The following applies: pH 7.4.
Data set [4] is described as follows: method code SF-AS, from DOI: 10.1021/jf970979g, PMID: 10554305.
Test in data set [5]: not given
The source holds these as a separate data set.

Test in data set [6]: not given
The source holds these as a separate data set.

Data set [7] is described as follows: method code SF-GLC, from DOI: 10.1023/a:1015803202857, PMID: 2395795.
The nature of data set [8]: method code SF-AS, from DOI: 10.1023/a:1018977225919, PMID: 10554109. The following applies: pH 3.5.
Data set [9] can be described thus: from Courrière, P.; Paubel, J.P.; Nivière, P.; Foussard-Blaspin, O. (1978). Structure-activity study in a series of local anesthetic agents. I. Physicochemical properties and molecular orbital study. ….
A short description of data set [10]: method code SF-AS, from DOI: 10.1016/s0021-9673(01)89522-4.
Test in data set [11]: not given
The source holds these as a separate data set.

The conditions of data set [12]: pH 7.4.
Test in data set [13]: not given
The source holds these as a separate data set.

Test in data set [14]: not given
The source holds these as a separate data set.

Test in data set [15]: not given
The source holds these as a separate data set.

The nature of data set [16]: method code SF-AS, from DOI: 10.1002/jps.2600830406, PMID: 7913964.
Data set [17] is described as follows: method code SF-AS, from DOI: 10.1002/jps.2600720808, PMID: 6620139.
A short description of data set [18]: method code SF-ESR, from DOI: 10.1515/znc-1987-7-832, PMID: 2961152.
The nature of data set [19]: method code SF-AS, from PMID: 8053967. The following applies: pH 7.4.
Test in data set [20]: not given
This is another data set of the same source.

Data set [21] can be described thus: method code SF-HPLC, from DOI: 10.1016/j.apradiso.2007.04.014, PMID: 17574425. The conditions noted are these: pH 7.4.
Test in data set [22]: not given
The source holds these as a separate data set.

Test in data set [23]: not given
This is another data set of the same source.

Data set [24] in a line: method code SF-AS, from DOI: 10.1248/cpb.45.1287, PMID: 9301027.
Test in data set [25]: not given
The source holds these as a separate data set.

A short description of data set [26]: method code SF-AS, from DOI: 10.1002/jps.2600610435, PMID: 5014327.

As to `COC(=O)C(C)NP(=O)(OCC1C=CC(n2cc(C)c(=O)[nH]c2=O)O1)Oc1ccc(OC(C)=O)cc1` (centres undefined), the logD (commonly lipophilicity at a set pH, counting ionised and neutral species) in data set [1] worked out at 1.01.
As to `CC(=O)Oc1cc2c(cc1Cl)C(c1ccccc1C(=O)O)c1cc(Cl)c(OC(C)=O)cc1O2`, the log partition coefficient (logP) – broadly, the decadic logarithm of the partition coefficient of the neutral form, usually between octanol and water – in [2] came to 3.51.
For `COc1ccc(C(C)NCCC(c2ccccc2)c2ccccc2)cc1OC` (centres undefined), the lipophilicity (logP) stood at 5.74.
As for `CNc1ccc(/C=C/c2cnc(OCCOCCOCCF)c(I)c2)cc1`, the logD in data set [3] was 2.54.
The molecule `CC(NC1=CC(=O)C(NC(C)C(O)c2ccccc2)=CC1=O)C(O)c1ccccc1` (centres undefined) had a logP in data set [4] of 1.42.
In turn, `CC1(C)C=C(C(=O)NCCCN2C(=O)c3ccccc3C2=O)C(C)(C)N1` registered a log partition coefficient (logP) of 1.63.
As for `CCN(CC)C(=O)Nc1ccc(OCC(O)CNC(C)(C)C)c(C(C)=O)c1` (centres undefined), in [5], the logP came to 1.92.
With `CNc1nc(NCCCN(C)C)c2sc(-c3cccc(C(=O)C(F)(F)F)c3)cc2n1`, the log partition coefficient (logP) in data set [6] was 4.3.
For `O=C(CCCN1CCC(O)(c2ccc(Cl)cc2)CC1)c1ccc(F)cc1`, the logP in [7] worked out at 3.23.
For `N#Cc1ccc2c(c1)N(CCCN1CCC(O)CC1)c1ccccc1S2`, the logP in [5] turned out to be 3.89.
`CC(NC1=CC(=O)C(NC(C)c2ccccc2)=CC1=O)c1ccccc1` (centres undefined) returned a logP in data set [4] of 0.98.
Consider `CCCCCC(O)C=CC1C(O)CC(=O)C1CCCCCCC(=O)O` (centres undefined), for which the logD in [8] turned out to be 3.12.
For the molecule `Cc1cccc(C)c1N(CCCN(C)C)C(=O)Cc1ccccc1`, in data set [9], the logP turned out to be 4.9.
In turn, `CNc1nc(NCCCN(C)C)c2sc(-c3ccc(C(=O)C(F)(F)F)cc3)cc2n1` yielded a logP in [6] of 4.6.
The molecule `CC12CCC(O)CC1CCC1C2CCC2(C)C(C3=CC(=O)OC3)C(O)CC12O` (centres undefined) returned a logP in data set [10] of 1.76.
`COc1ccc(-c2oc3c(CC=C(C)C)c(O)cc(O)c3c(=O)c2O[C@@H]2O[C@@H](C)[C@H](O)[C@@H](O)[C@H]2O)cc1` had a logP in data set [11] of 5.11.
Take `COc1cc([N+](=O)[O-])cc(C=CC(=O)N2CCC(n3c(=O)[nH]c4ccccc43)CC2)c1OC`: in data set [12], the pH-dependent lipophilicity (logD) was 3.
Molecule `CN(C)c1ccc(/C=C/c2cnc(OCCOCCOCCF)c(I)c2)cc1` gave a logD in data set [3] of 2.59.
In [13], `CSc1nc(NCc2cccc(Cl)c2)c2cnn(CC(Cl)c3ccccc3)c2n1` (centres undefined) showed a logP of 5.87.
`C#C[C@]1(O)CC[C@H]2[C@@H]3CCc4cc(O)ccc4[C@H]3[C@@H](CC)C[C@@]21C`: the logP in data set [14] was determined as 4.28.
Take `C[C@]12CC[C@@H](O)C[C@@H]1CC[C@@H]1[C@@H]2CC[C@]2(C)[C@@H](O)CC[C@@H]12`: the logP in data set [15] turned out to be 4.16.
Turning to `COC(=O)[C@@H]1C[C@H]2[C@@H]3CCC4=CC(=O)C=C[C@]4(C)[C@@]3(F)[C@@H](O)C[C@]2(C)[C@H]1C(=O)CO`, the log partition coefficient (logP) in [16] turned out to be 1.78.
The molecule `CCCCC[C@H](O)/C=C/[C@@H]1[C@@H](C/C=C\CCCC(=O)O)[C@@H](O)C[C@H]1O` came in with a logP in [17] of 2.72.
In turn, `OC(CCN1CCCCC1)(c1ccccc1)C1CC2C=CC1C2` (centres undefined) came in with a logP in [7] of 4.25.
Regarding `COC(=O)C(C)NP(=O)(Oc1ccc(C)cc1)OC1C=CC(n2cc(C)c(=O)[nH]c2=O)O1` (centres undefined), in [1], the logD was 1.19.
With `Cc1cccc(C)c1N(CCCN(C)C)C(=O)/C=C/c1ccccc1`, the logP in data set [9] was 5.27.
On to `CSc1nc(NCCc2ccccc2)c2cnn(C(Cl)c3ccc(Cl)cc3)c2n1` (centres undefined), for which, in data set [13], the logP is 6.54.
As to `CC1(C)CC(N(CCN(C(=O)N(CCCl)N=O)C2CC(C)(C)N(O)C(C)(C)C2)C(=O)N(CCCl)N=O)CC(C)(C)N1O`, the logP in data set [18] was found to be 2.35.
Regarding `O=C(CCN1CCOCC1)CN1C(=O)CC2(CCCc3ccccc32)C1=O` (centres undefined), in [19], the logD stood at 1.63.
`CCC1C[C@H]2[C@@H]3CCC4=CC(=O)CC[C@@H]4[C@H]3CC[C@]2(C)C1C(=O)CO` (some centres undefined) displayed a logP in [20] of 4.21.
For the molecule `O=C(CCl)Nc1cc2c(Nc3cc(Cl)c(Cl)cc3F)ncnc2cc1OCCOCCF`, the logD in data set [21] is 4.3.
Still for that read-out and setting: under `O=C(CCl)Nc1cc2c(Nc3cc(Cl)c(Cl)cc3F)ncnc2cc1OCCOCCOCCOCCF` stands 4.64.
Turning to `C#C[C@@]1(O)[C@@H](F)C[C@H]2[C@@H]3CCc4cc(O)ccc4[C@H]3[C@@H](CC)C[C@@]21C`, the logP in data set [14] came to 4.12.
Consider `CCCCCCCC(=O)OC(CNC(C)(C)C)COc1nsnc1N1CCOCC1` (centres undefined), for which the lipophilicity (logP) in [22] is 4.66.
In [10], `CC12CCC(O)CC1CCC1C2CCC2(C)C(C3=CC(=O)OC3)CCC12O` (centres undefined) registered a lipophilicity (logP) of 2.64.
In turn, `CCOC(=O)C1(c2ccccc2)CCN(CCC(O)c2ccccc2)CC1` (centres undefined) came in with a logP in data set [23] of 4.04.
Regarding `C[C@]12CC[C@H](O)CC1=CC[C@@H]1[C@@H]2CC[C@]2(C)C(=O)CC[C@@H]12`, the logP in data set [15] is 3.23.
As for `CCOCCn1c(CN2CCCN(CCCCn3cccn3)CC2)nc2ccccc21`, in data set [24], the logP stood at 4.61.
Consider `O=C(CCN1CCOCC1)CN1C(=O)CC2(CCc3ccccc32)C1=O` (centres undefined), for which the logD in data set [19] worked out at 1.26.
`COC(=O)C1=C(C)NC(C)=C(C(=O)OCC(C)C)C1c1cccc([N+](=O)[O-])c1` (centres undefined) displayed a logP in [25] of 3.23.
`CC(C)(C)NCC(COc1nsnc1N1CCOCC1)OC(=O)c1ccccc1COC(=O)c1ccccc1` (centres undefined) returned a logP in data set [22] of 4.37.
In turn, `C[C@H](CCC(=O)O)[C@H]1CC[C@H]2[C@@H]3CC[C@@H]4C[C@H](O)CC[C@]4(C)[C@H]3C[C@H](O)[C@]12C` had a logD in data set [8] of 3.5.
Take `C[C@H](CN1CCOCC1)C(C(=O)N1CCCC1)(c1ccccc1)c1ccccc1`: the logP in [23] was determined as 3.61.
As for `COc1cc(C(=O)NC2CCCC3CN(C)CCC32)cc(OC)c1OC` (centres undefined), the logP in data set [26] is -0.3.
For the molecule `COc1ccc(-c2oc3c(CC=C(C)C)c(O)cc(O)c3c(=O)c2O)cc1`, the lipophilicity (logP) in data set [11] was 6.07.
Molecule `COC(=O)[C@@H]1C[C@H]2[C@@H]3CCC4=CC(=O)C=C[C@]4(C)[C@H]3[C@@H](O)C[C@]2(C)[C@H]1C(=O)CO` registered a logP in data set [16] of 1.7.
In [26], `COc1cc(C(=O)OC2CCC[C@@H]3CN(C)CC[C@H]23)cc(OC)c1OC` (some centres undefined) had a logP of 0.58.
For `O=C(O)c1ccccc1C1c2cc(Cl)c(O)cc2Oc2cc(O)c(Cl)cc21`, in [2], the logP worked out at 2.62.
Consider `O=C(C=Cc1cc([N+](=O)[O-])cc2c1OCO2)N1CCC2(CC1)C(=O)NCN2c1ccccc1`, for which the logD in data set [12] was 3.1.
The molecule `CCC1C[C@H]2[C@@H]3CCC4=CC(=O)CC[C@@H]4[C@H]3CC[C@]2(C)[C@H]1C(=O)CF` (some centres undefined) displayed a logP in data set [20] of 4.41.
Molecule `COc1cc2nc(N(C)CCCNC(=O)C3CCCO3)nc(N)c2cc1OC` (centres undefined) yielded a logP in data set [25] of 1.93.
`CC1(C)CC(N(C(=O)N(CCCl)N=O)C2CC(C)(C)N(O)C(C)(C)C2)CC(C)(C)N1O` had a logP in data set [18] of 1.63.
For the molecule `CCCCC[C@](C)(O)/C=C/C1[C@H](O)C[C@H](O)[C@@H]1C/C=C\CCCC(=O)OC` (some centres undefined), the logP in [17] turned out to be 3.21.
In data set [24], `CCOCCn1c(N2CCCN(CCCCn3cccn3)CC2)nc2ccccc21` gave a logP of 3.99.
